From patent US20070020193A1, “Dronabinol compositions and methods for using same” (priority 2005, published 2007)

Key:
[1] = Example 2 multiple rising dose inhaled delta-9-THC study: plasma pharmacokinetics
Method: A randomized, double-blind, placebo-controlled, multiple rising dose safety, tolerability, pharmacokinetic and pharmacodynamic study to assess two dose levels of inhaled delta-9-THC was conducted. Dose levels were studied in ascending order. Two consecutive groups (n=9/group) of healthy subjects were studied (Groups I and II). […] There was a lapse of at least 10 days between the groups for interim safety and pharmacokinetic analysis. Two dose levels were studied in ascending order. […] Subjects in each treatment Group (I or II) received single and multiple doses of inhaled delta-9-THC according to the following schedule:
For both dose levels, the first and the last dose of study drug was given under fasted conditions. Subjects were confined to the study site from the evening of Day −2 (Day 1 is the day of administration of the first dose of study drug) until the 120-hour blood sample following the final dose of study drug, resulting in an 18-day confinement period for subjects in Group I and a 25-day confinement period for Group II. Between the completion of Group I and the start of Group II, an interim safety and pharmacokinetic analysis was performed. Based on the results of the interim analyses, the dose level for investigation in Group II was determined.
Two MDI dosage strengths were used corresponding to the same formulations used in Example 1: one delivering 0.3 mg delta-9-THC (or placebo) per actuation and one delivering 1.2 mg delta-9-THC (or placebo) per actuation. The MDI consisted of a pressurized (via propellants) container and a metered-dose valve. The propellants provided the necessary force to expel the drug, and also acted as a solvent and diluent. The canister unit was provided within a mouthpiece (oral adapter), to expel an exact amount of drug, in the proper particle size distribution, upon each actuation. Two basic formulations containing 0.3 and 1.2 mg of delta-9-THC per 50 μL were developed with propellant 1,1,1,2 tetrafluoroethane 134a (HFA 134a), and ethanol as solvent. The formulations were made in accordance with the composition used in Example 1.
(§1) Whole blood samples were collected according to the assessment flowchart in EDTA tubes through venepuncture or indwelling catheter. Samples were immediately placed on ice and subsequently centrifuged within 30 minutes at 1,500 g for 10 minutes. Plasma was transferred into a 5 ml screw cap polypropylene tube, stoppered and stored at below minus 20° C. until transfer to the analytical laboratory for analysis. […] The measurement ranges were 0.05-30 ng/ml for delta-9-THC, 0.04-30 ng/ml for 11-OH-THC, and 0.25-10 ng/ml for THC-COOH.
For Example 2: The statistical analysis encompassed an exploratory analysis of the single and multiple dose pharmacokinetics and dose proportionality of two dose levels of inhaled delta-9-THC in healthy subjects. Descriptive statistics included number of subjects, mean, standard deviation, coefficient of variation (%) and geometric mean for all pharmacokinetic parameters.
The exploratory analysis was performed on the logarithms of the dose-normalized pharmacokinetic parameters AUC(0-inf), AUC(0-t), AUC(0-τ) and Cmax. Dose proportionality was tested both at single dose and at multiple dose (steady state) by comparing the dose groups for all pharmacokinetic parameters by an analysis of variance with dose as fixed effect.
Dose proportionality was tested by the contrast between the dose groups. For this contrast on the logarithmic scale, p-values were given. After anti-logarithmic transformation, the resultant ratios of geometric means and 90% confidence intervals were given.
Accumulation was tested by comparing the steady state values for AUC(0-τ) with the single dose values for AUC(0-τ) by a mixed model analysis of variance with dose and day (with levels single dose and steady state) as fixed effects and subject within dose as random effect.

[2] = Example 1 single rising dose inhaled delta-9-THC study: plasma pharmacokinetics
Method: A randomized, double blind, placebo controlled, three way crossover, single rising dose human clinical study in two sequential groups (Groups I and II) of nine young healthy male subjects (18-45 years of age and body mass index (BMI) of 20-26 kg/m^2) of a metered dose inhalation composition according to one embodiment the present invention was conducted. Each subject received two ascending single doses of inhaled delta-9-THC and one single dose of inhaled placebo according to a three-way crossover balanced incomplete block design. The administered composition is detailed in Table 1. Composition I provides 0.3 mg per actuation, while Composition II provides 1.2 mg per actuation.
Each sequential dose level or period was separated by a washout period of two weeks, during which an interim safety and pharmacokinetic analysis was performed. A third group (Group III) of nine elderly healthy male and female subjects (65-80 years old and BMI 18-30 kg/m^2) was added after completion of the sixth study period to participate in a single treatment period. […] Five dose levels were evaluated: 0.3 mg, 1.2 mg, and 2.4 mg in Group I, 3.6 mg, 7.2 mg, and 9.6 mg in Group II, and 3.6 mg in Group III. Subjects were confined to the study center from the day prior to dosing until the 48 hour blood sample. Subjects returned to the center for 72, 96 and 120 hour pharmacokinetic samples. Various pharmacokinetic and pharmacodynamic measurements and sampling were taken according to the Assessment Flow Charts in FIG. 1 and FIG. 2. Safety was measured by monitoring adverse events, physical examination, clinical laboratory and pulmonary function tests, vital signs, 12 lead ECG, and telemetry.
Safety, pharmacokinetic and pharmacodynamic variables were estimated. Plasma concentrations of delta-9-THC (THC), 11-hydroxy-tetrahydrocanabinol (11-OH-THC) and delta-9-tetrahydrocannbinol-carboxylic acid (THC-COOH) were determined for pharmacokinetic analysis.
as §1
Number of subjects, mean, standard deviation, coefficient variable (%) and geometric mean were calculated for all pharmacokinetic parameters.
For Example 1: A mixed ANOVA model with group and dose fixed effect and subject within group by dose as random effect was performed on the logarithms of the dose normalized pharmacokinetic parameters AUC, AUC0-t and Cmax. The overall treatment effect was tested by conventional F-test with Satterthwaites correction. Dose proportionality was tested using Helmert Contrasts and Reverse Helmert Contrasts. The within and between subject coefficient of variances were calculated from the estimated covariance parameters. Per dose level geometric means with 90% confidence interval were calculated for the dose-normalized values from the least squared means analysis outcomes. The difference between young and elderly subjects was explored using a one-way ANOVA.

CCCCCc1cc(O)c2c(c1)OC(C)(C)C1CCC(CO)=CC21 (stereo not shown) [11-OH-THC, 11-hydroxy-tetrahydrocanabinol]
achievement of steady state ([1]; 1.2 mg delta-9-THC three times daily): apparently reached after six days of dosing
Cmax, Geometric Mean (Range) ([1]; 1.2 mg m.d. (three times daily), Day 12, Group I): 0.54 (0.26-1.26) ng/mL
AUC(0-8), Arithmetic Mean (SD) ([1]; 1.2 mg m.d., Day 12, Group I): 2.07 (0.99) ng · h/mL
AUC(0-8), Geometric Mean (Range) ([1]; 1.2 mg m.d., Day 12, Group I): 1.89 (1.13-3.48) ng · h/mL
Cmax, Arithmetic Mean (SD) ([1]; 1.2 mg m.d., Day 12, Group I): 0.61 (0.36) ng/mL
tmax, Arithmetic Mean (SD) ([1]; 1.2 mg m.d., Day 12, Group I): 0.48 (0.36) h
tmax, median (range) ([1]; 1.2 mg m.d., Day 12, Group I): 0.42 (0.17-1.00) h
t½, Arithmetic Mean (SD) ([1]; 1.2 mg m.d., Day 12, Group I): 14.9 (6.08) h
t½, Geometric Mean (Range) ([1]; 1.2 mg m.d., Day 12, Group I): 13.9 (7.41-25.2) h
AUC(0-8), Arithmetic Mean (SD) ([1]; 1.2 mg s.d., Day 1): 1.50 (0.88) ng · h/mL
AUC(0-8), Geometric Mean (Range) ([1]; 1.2 mg s.d., Day 1): 1.26 (0.41-2.66) ng · h/mL
AUC(0-inf), Arithmetic Mean (SD) ([1]; 1.2 mg s.d., Day 1): 1.93 (1.22) ng · h/mL
AUC(0-inf), Geometric Mean (Range) ([1]; 1.2 mg s.d., Day 1): 1.56 (0.49-3.39) ng · h/mL
tmax, Arithmetic Mean (SD) ([1]; 1.2 mg s.d., Day 1): 0.48 (0.75) h
tmax, median (range) ([1]; 1.2 mg s.d., Day 1): 0.17 (0.17-2.00) h
t½, Arithmetic Mean (SD) ([1]; 1.2 mg s.d., Day 1): 4.19 (1.67) h
t½, Geometric Mean (Range) ([1]; 1.2 mg s.d., Day 1): 3.91 (2.55-6.01) h
Cmax, Arithmetic Mean (SD) ([1]; 1.2 mg s.d., Day 1, plasma): 0.86 (0.57) ng/mL
Cmax, Geometric Mean (Range) ([1]; 1.2 mg s.d., Day 1, plasma): 0.63 (0.10-1.55) ng/mL
Cmax, Geometric Mean (Range) ([1]; 3.6 mg m.d. (three times daily), Day 19, Group II): 2.87 (1.27-6.97) ng/mL
AUC(0-8), Arithmetic Mean (SD) ([1]; 3.6 mg m.d., Day 19, Group II): 10.1 (6.13) ng · h/mL
AUC(0-8), Geometric Mean (Range) ([1]; 3.6 mg m.d., Day 19, Group II): 8.69 (4.06-19.8) ng · h/mL
Cmax, Arithmetic Mean (SD) ([1]; 3.6 mg m.d., Day 19, Group II): 3.40 (2.17) ng/mL
tmax, Arithmetic Mean (SD) ([1]; 3.6 mg m.d., Day 19, Group II): 0.27 (0.20) h
tmax, median (range) ([1]; 3.6 mg m.d., Day 19, Group II): 0.17 (0.17-0.67) h
t½, Arithmetic Mean (SD) ([1]; 3.6 mg m.d., Day 19, Group II): 57.3 (37.9) h
t½, Geometric Mean (Range) ([1]; 3.6 mg m.d., Day 19, Group II): 39.5 (5.65-94.2) h
AUC(0-8), Arithmetic Mean (SD) ([1]; 3.6 mg s.d., Day 1): 5.15 (3.04) ng · h/mL
AUC(0-8), Geometric Mean (Range) ([1]; 3.6 mg s.d., Day 1): 4.44 (2.22-9.46) ng · h/mL
AUC(0-inf), Arithmetic Mean (SD) ([1]; 3.6 mg s.d., Day 1): 6.82 (3.98) ng · h/mL
AUC(0-inf), Geometric Mean (Range) ([1]; 3.6 mg s.d., Day 1): 5.86 (3.03-11.6) ng · h/mL
tmax, Arithmetic Mean (SD) ([1]; 3.6 mg s.d., Day 1): 0.18 (0.01) h
tmax, median (range) ([1]; 3.6 mg s.d., Day 1): 0.17 (0.17-0.20) h
t½, Arithmetic Mean (SD) ([1]; 3.6 mg s.d., Day 1): 5.98 (2.91) h
t½, Geometric Mean (Range) ([1]; 3.6 mg s.d., Day 1): 5.44 (2.96-11.0) h
Cmax, Arithmetic Mean (SD) ([1]; 3.6 mg s.d., Day 1, plasma): 2.21 (1.37) ng/mL
Cmax, Geometric Mean (Range) ([1]; 3.6 mg s.d., Day 1, plasma): 1.91 (1.12-4.38) ng/mL
achievement of steady state ([1]; 3.6-mg dose level three times daily): achieved after seven or eight days of dosing
accumulation during multiple dosing ([1]; 8-hours dosing interval): accumulation occurred during multiple dosing
Ratio AUC(0-8) m.d./AUC(0-8) s.d. (Accumulation factor), Mean ([1]; Group I, 1.2 mg): 1.59
Ratio AUC(0-8) m.d./AUC(0-inf) s.d. (Linearity), Mean ([1]; Group I, 1.2 mg): 1.30
Ratio AUC(0-8) m.d./AUC(0-8) s.d. (Accumulation factor), Mean ([1]; Group II, 3.6 mg): 2.10
Ratio AUC(0-8) m.d./AUC(0-inf) s.d. (Linearity), Mean ([1]; Group II, 3.6 mg): 1.55
dose proportionality: geometric mean ratio (3.6 mg:1.2 mg) of dose-normalized AUC(0-8) (90% confidence interval) ([1]; Multiple dose): 1.53 (0.87-2.69)
dose proportionality: geometric mean ratio (3.6 mg:1.2 mg) of dose-normalized Cmax (90% confidence interval) ([1]; Multiple dose): 1.79 (0.95-3.36)
dose proportionality: geometric mean ratio (3.6 mg:1.2 mg) of dose-normalized AUC(0-8) (90% confidence interval) ([1]; Single dose): 1.18 (0.60-2.33)
dose proportionality: geometric mean ratio (3.6 mg:1.2 mg) of dose-normalized AUC(0-inf) (90% confidence interval) ([1]; Single dose): 1.25 (0.61-2.57)
dose proportionality: geometric mean ratio (3.6 mg:1.2 mg) of dose-normalized AUC(0-t) (90% confidence interval) ([1]; Single dose): 1.43 (0.64-3.20)
dose proportionality: geometric mean ratio (3.6 mg:1.2 mg) of dose-normalized Cmax (90% confidence interval) ([1]; Single dose): 1.01 (0.42-2.42)
Cmax, fold lower compared to the parent compound ([1]; after multiple dosing): ~13 fold
exposure compared to the parent drug (AUC(0-8)) ([1]; after multiple dosing): approximately two-fold lower
Cmax, fold lower compared to the parent compound ([1]; after single dosing): approximately 25 fold
dose proportionality of pharmacokinetic parameters ([1]; after single or multiple dose administration): not found to deviate significantly
plasma concentration-time curve, elimination profile ([1]; both dose levels): at least a bi-phasic elimination profile
time of peak plasma concentration ([1]; both dose levels, post-dose): between 10 minutes and 2 hours post-dose
exposure compared to the parent drug (AUC(0-inf)) ([1]; following single dose administration): approximately four-fold lower
Cmax and AUC values versus dose ([1]; single and multiple dose administration, 1.2 and 3.6 mg): Dose-related increases
Terminal elimination half-lives (summary estimate) ([1]; summary, best estimated after multiple dosing): ~40 h
Cmax and AUC versus dose ([2]; 7.2 and 9.6 mg doses): less than proportional increase
Cmax and AUC versus dose ([2]; Groups I and II, doses from 0.3-3.6 mg): dose-related increase
Cmax ([2]; plasma, after 2.4 mg of delta-9-THC administered by MDI (FIGS. 6 and 7)): 0.77 ng/mL
